{"source": "paper PMC5218480", "about": "(PLoS ONE, 2017)", "tested_on": "MV-4-11 cells", "assay": "Gene expression microarray analysis (Affymetrix PrimeView) and GSEA", "assay_type": "cell-based, human", "parameters": "RFU PODN (11730768_x_at) / Fold change /veh PODN (11730768_x_at) / RFU LINC00158 (11744669_a_at) / Fold change /veh LINC00158 (11744669_a_at) / RFU DUSP10 (11751237_a_at) / Fold change /veh DUSP10 (11751237_a_at) / RFU ID3 (11757404_x_at) / Fold change /veh ID3 (11757404_x_at) / RFU PLEKHG5 (11737974_s_at) / Fold change /veh PLEKHG5 (11737974_s_at) / RFU LRRC4B (11730491_at) / Fold change /veh LRRC4B (11730491_at) / RFU GIMAP4 (11747438_a_at) / Fold change /veh GIMAP4 (11747438_a_at) / RFU KRT8 (11758183_x_at) / Fold change /veh KRT8 (11758183_x_at) / RFU CNN1 (11734310_a_at) / Fold change /veh CNN1 (11734310_a_at) / RFU VPS37D (11726825_at) / Fold change /veh VPS37D (11726825_at) / RFU C10orf10 (11716522_x_at) / Fold change /veh C10orf10 (11716522_x_at) / RFU KIR2DL2 /// KIR2DL4 /// KIR2DL5A /// KIR2DL5B /// KIR2DS1 /// KIR2DS2 /// KIR2DS3 /// KIR2DS4 /// KIR3DL3 /// KIR3DL3 /// KIR3DS1 (11738374_at) / Fold change /veh KIR2DL2 /// KIR2DL4 /// KIR2DL5A /// KIR2DL5B /// KIR2DS1 /// KIR2DS2 /// KIR2DS3 /// KIR2DS4 /// KIR3DL3 /// KIR3DL3 /// KIR3DS1 (11738374_at) / RFU C1QL1 (11718748_at) / Fold change /veh C1QL1 (11718748_at) / RFU TMPRSS4 (11747572_a_at) / Fold change /veh TMPRSS4 (11747572_a_at) / RFU HAMP (11756126_x_at) / Fold change /veh HAMP (11756126_x_at) / RFU RNFT2 (11725882_a_at) / Fold change /veh RNFT2 (11725882_a_at) / RFU NR4A2 (11747474_a_at) / Fold change /veh NR4A2 (11747474_a_at) / RFU ABCC12 (11746883_a_at) / Fold change /veh ABCC12 (11746883_a_at) / RFU TMEM136 (11760407_x_at) / Fold change /veh TMEM136 (11760407_x_at) / RFU CLDN22 /// WWC2 (11732394_at) / Fold change /veh CLDN22 /// WWC2 (11732394_at) / RFU HLA-DPB1 (11760878_x_at) / Fold change /veh HLA-DPB1 (11760878_x_at) / RFU SPINT1 (11716480_a_at) / Fold change /veh SPINT1 (11716480_a_at) / RFU GAP43 (11754022_s_at) / Fold change /veh GAP43 (11754022_s_at) / RFU A4GNT (11735810_at) / Fold change /veh A4GNT (11735810_at) / RFU PRB3 (11715151_x_at) / Fold change /veh PRB3 (11715151_x_at) / RFU TUBB4B (11761932_at) / Fold change /veh TUBB4B (11761932_at) / RFU CAPN14 (11732068_a_at) / Fold change /veh CAPN14 (11732068_a_at) / RFU TMCC2 (11721928_a_at) / Fold change /veh TMCC2 (11721928_a_at) / RFU IRGQ (11745062_a_at) / Fold change /veh IRGQ (11745062_a_at) / RFU FAM174B (11720279_a_at) / Fold change /veh FAM174B (11720279_a_at) / RFU TMPRSS4 (11748680_a_at) / Fold change /veh TMPRSS4 (11748680_a_at) / RFU FAM212B (11763350_a_at) / Fold change /veh FAM212B (11763350_a_at) / RFU PLEKHG5 (11743358_a_at) / Fold change /veh PLEKHG5 (11743358_a_at) / RFU ZSCAN30 (11745921_a_at) / Fold change /veh ZSCAN30 (11745921_a_at) / RFU CMKLR1 (11741424_a_at) / Fold change /veh CMKLR1 (11741424_a_at) / RFU LOC101060620 /// MAPK8IP1 (11723275_at) / Fold change /veh LOC101060620 /// MAPK8IP1 (11723275_at) / RFU SPTSSB (11747773_x_at) / Fold change /veh SPTSSB (11747773_x_at) / RFU PRSS12 (11739890_at) / Fold change /veh PRSS12 (11739890_at) / RFU BIN1 (11741810_x_at) / Fold change /veh BIN1 (11741810_x_at) / RFU WNT11 (11732464_a_at) / Fold change /veh WNT11 (11732464_a_at) / RFU C10orf10 (11716521_a_at) / Fold change /veh C10orf10 (11716521_a_at) / RFU C5orf56 (11738089_at) / Fold change /veh C5orf56 (11738089_at) / RFU CYB561 (11721691_x_at) / Fold change /veh CYB561 (11721691_x_at) / RFU ANKRD19P (11752326_a_at) / Fold change /veh ANKRD19P (11752326_a_at) / RFU OR2T12 /// OR2T33 /// OR2T8 (11738714_s_at) / Fold change /veh OR2T12 /// OR2T33 /// OR2T8 (11738714_s_at) / RFU VCAN (11748164_a_at) / Fold change /veh VCAN (11748164_a_at) / RFU JSRP1 (11732532_at) / Fold change /veh JSRP1 (11732532_at) / RFU KRTAP10-11 (11738290_x_at) / Fold change /veh KRTAP10-11 (11738290_x_at) / RFU MYO3A (11730013_a_at) / Fold change /veh MYO3A (11730013_a_at) / RFU EBF3 (11725865_a_at) / Fold change /veh EBF3 (11725865_a_at) / RFU CAMK2N1 (11719241_x_at) / Fold change /veh CAMK2N1 (11719241_x_at) / RFU C5orf56 (11738088_a_at) / Fold change /veh C5orf56 (11738088_a_at) / RFU OLFML3 (11715873_a_at) / Fold change /veh OLFML3 (11715873_a_at) / RFU LOC100653217 /// NTM (11731650_a_at) / Fold change /veh LOC100653217 /// NTM (11731650_a_at) / RFU MAPK11 (11762145_a_at) / Fold change /veh MAPK11 (11762145_a_at) / RFU FIZ1 (11724087_x_at) / Fold change /veh FIZ1 (11724087_x_at) / RFU OASL (11726364_x_at) / Fold change /veh OASL (11726364_x_at) / RFU SOX15 (11748057_x_at) / Fold change /veh SOX15 (11748057_x_at) / RFU CD79A (11719716_a_at) / Fold change /veh CD79A (11719716_a_at) / RFU HIST1H1D (11736915_at) / Fold change /veh HIST1H1D (11736915_at) / RFU CASKIN2 (11723855_a_at) / Fold change /veh CASKIN2 (11723855_a_at) / RFU LOC730098 (11760151_x_at) / Fold change /veh LOC730098 (11760151_x_at) / RFU OR4N2 (11742367_at) / Fold change /veh OR4N2 (11742367_at) / RFU PRRT2 (11749266_a_at) / Fold change /veh PRRT2 (11749266_a_at) / RFU SNX32 (11753110_a_at) / Fold change /veh SNX32 (11753110_a_at) / RFU CDHR5 (11726645_a_at) / Fold change /veh CDHR5 (11726645_a_at) / RFU RCAN1 (11760418_a_at) / Fold change /veh RCAN1 (11760418_a_at) / RFU FAM167A (11723789_a_at) / Fold change /veh FAM167A (11723789_a_at) / RFU FAM26E (11764081_at) / Fold change /veh FAM26E (11764081_at) / RFU ISYNA1 (11749810_s_at) / Fold change /veh ISYNA1 (11749810_s_at) / RFU ACY1 (11761880_at) / Fold change /veh ACY1 (11761880_at) / RFU 11764098_at / Fold change /veh 11764098_at / RFU SAMD14 (11745864_x_at) / Fold change /veh SAMD14 (11745864_x_at) / RFU NPB (11741838_a_at) / Fold change /veh NPB (11741838_a_at) / RFU TMPRSS6 (11731388_a_at) / Fold change /veh TMPRSS6 (11731388_a_at) / RFU KRTAP10-2 (11738614_at) / Fold change /veh KRTAP10-2 (11738614_at) / RFU ARHGAP8 /// PRR5-ARHGAP8 (11727945_x_at) / Fold change /veh ARHGAP8 /// PRR5-ARHGAP8 (11727945_x_at) / RFU KRTAP5-7 /// NADSYN1 (11734609_at) / Fold change /veh KRTAP5-7 /// NADSYN1 (11734609_at) / RFU RASL12 (11751679_a_at) / Fold change /veh RASL12 (11751679_a_at) / RFU CDKN2B (11736163_a_at) / Fold change /veh CDKN2B (11736163_a_at) / RFU PRF1 (11729649_at) / Fold change /veh PRF1 (11729649_at) / RFU, ZNF638 /// ZNF638-IT1 / Fold change vs veh, ZNF638 /// ZNF638-IT1 / RFU, PANK3 / Fold change vs veh, PANK3 / RFU, SH3YL1 / Fold change vs veh, SH3YL1 / RFU, ZEB2 / Fold change vs veh, ZEB2 / RFU, NRIP1 / Fold change vs veh, NRIP1 / RFU, PTTG1IP / Fold change vs veh, PTTG1IP / RFU, CAPN2 / Fold change vs veh, CAPN2 / RFU, MED14 / Fold change vs veh, MED14 / RFU, SNORA58 / Fold change vs veh, SNORA58 / RFU, C1orf63 / Fold change vs veh, C1orf63 / RFU, LRRFIP1 / Fold change vs veh, LRRFIP1 / RFU, NDUFAF7 / Fold change vs veh, NDUFAF7 / RFU, SLC12A2 / Fold change vs veh, SLC12A2 / RFU, IBTK / Fold change vs veh, IBTK / RFU, ESF1 / Fold change vs veh, ESF1 / Fold change vs veh, TMEM50B / RFU, TAOK1 / Fold change vs veh, TAOK1 / RFU, ACBD3 / Fold change vs veh, ACBD3 / RFU, TMA16 / Fold change vs veh, TMA16 / RFU, RWDD3 / Fold change vs veh, RWDD3 / RFU, BCAT1 / Fold change vs veh, BCAT1 / RFU, EDEM3 / Fold change vs veh, EDEM3 / RFU, TMEM33 / Fold change vs veh, TMEM33 / RFU, WDR75 / Fold change vs veh, WDR75 / RFU, AHCTF1 / Fold change vs veh, AHCTF1 / RFU, TFRC / Fold change vs veh, TFRC / RFU, ZDHHC17 / Fold change vs veh, ZDHHC17 / RFU, NOM1 / Fold change vs veh, NOM1 / RFU, ARL8B / Fold change vs veh, ARL8B / RFU, ZBTB11 / Fold change vs veh, ZBTB11 / RFU, TAMM41 / Fold change vs veh, TAMM41 / RFU, KIAA1704 /// LOC100996395 / Fold change vs veh, KIAA1704 /// LOC100996395 / RFU, ING1 / Fold change vs veh, ING1 / RFU, TRMT61B / Fold change vs veh, TRMT61B / RFU, FUBP3 / Fold change vs veh, FUBP3 / RFU, TP53 / Fold change vs veh, TP53 / RFU, TNKS2 / Fold change vs veh, TNKS2 / RFU, ZFP14 / Fold change vs veh, ZFP14 / RFU, ACTR2 / Fold change vs veh, ACTR2 / RFU, PPP3R1 / Fold change vs veh, PPP3R1 / RFU, PIK3R1 / Fold change vs veh, PIK3R1 / RFU, HNRNPA1 / Fold change vs veh, HNRNPA1 / RFU, RNF170 / Fold change vs veh, RNF170 / RFU, ZNF28 / Fold change vs veh, ZNF28 / RFU, RNGTT / Fold change vs veh, RNGTT / RFU, OGT / Fold change vs veh, OGT / RFU, BRD1 / Fold change vs veh, BRD1 / RFU, MARS / Fold change vs veh, MARS / RFU, ZNF655 / Fold change vs veh, ZNF655 / RFU, FAHD1 / Fold change vs veh, FAHD1 / RFU, BDP1 / Fold change vs veh, BDP1 / RFU, LRRCC1 / Fold change vs veh, LRRCC1 / RFU, ARID1A / Fold change vs veh, ARID1A / RFU, ZNF146 / Fold change vs veh, ZNF146 / RFU, ZNF330 / Fold change vs veh, ZNF330 / RFU, GPN3 / Fold change vs veh, GPN3 / RFU, C9orf123 / Fold change vs veh, C9orf123 / RFU, N4BP2L2 / Fold change vs veh, N4BP2L2 / RFU, ARFIP1 / Fold change vs veh, ARFIP1 / RFU, FAM179B / Fold change vs veh, FAM179B / RFU, BCL10 / Fold change vs veh, BCL10 / RFU, UHRF1BP1L / Fold change vs veh, UHRF1BP1L / RFU, BET1 / Fold change vs veh, BET1 / RFU, CNOT2 / Fold change vs veh, CNOT2 / RFU, ZNF268 / Fold change vs veh, ZNF268 / Fold change vs veh, ZNF507 / RFU, DGCR2 / Fold change vs veh, DGCR2 / RFU, WDSUB1 / Fold change vs veh, WDSUB1 / Fold change vs veh, HSP90B1 /// MIR3652 / RFU, ADSS / Fold change vs veh, ADSS / RFU, GK / Fold change vs veh, GK / RFU, ZNF148 / Fold change vs veh, ZNF148 / RFU, TAF9 / Fold change vs veh, TAF9 / RFU, SLC1A5 / Fold change vs veh, SLC1A5 / RFU, SLMO2 / Fold change vs veh, SLMO2 / RFU, ABCC4 / Fold change vs veh, ABCC4 / RFU, LOC101060439 /// RAP1B / Fold change vs veh, LOC101060439 /// RAP1B / RFU, RFX7 / Fold change vs veh, RFX7 / RFU, GTPBP10 / Fold change vs veh, GTPBP10 / RFU, CNEP1R1 / Fold change vs veh, CNEP1R1 / RFU, BIVM-ERCC5 /// ERCC5 / Fold change vs veh, BIVM-ERCC5 /// ERCC5 / RFU, ILF3 / Fold change vs veh, ILF3 / RFU 11762660_at / Fold change /veh 11762660_at / RFU VCAN (11757783_s_at) / Fold change /veh VCAN (11757783_s_at) / RFU DDX43 (11728927_at) / Fold change /veh DDX43 (11728927_at) / RFU KRT8 (11758188_x_at) / Fold change /veh KRT8 (11758188_x_at) / RFU NKD1 (11759106_at) / Fold change /veh NKD1 (11759106_at) / RFU SRD5A1 (11742802_a_at) / Fold change /veh SRD5A1 (11742802_a_at) / RFU TPSAB1 /// TPSB2 (11721975_s_at) / Fold change /veh TPSAB1 /// TPSB2 (11721975_s_at) / RFU GSTM3 (11746129_a_at) / Fold change /veh GSTM3 (11746129_a_at) / RFU IL23R (11737362_x_at) / Fold change /veh IL23R (11737362_x_at) / RFU TMEM51 (11727254_a_at) / Fold change /veh TMEM51 (11727254_a_at) / RFU PIWIL2 (11732686_x_at) / Fold change /veh PIWIL2 (11732686_x_at) / RFU ORM1 (11744905_x_at) / Fold change /veh ORM1 (11744905_x_at) / RFU CCDC152 (11743942_at) / Fold change /veh CCDC152 (11743942_at) / RFU ECM1 (11717891_a_at) / Fold change /veh ECM1 (11717891_a_at) / RFU IL23R (11748794_a_at) / Fold change /veh IL23R (11748794_a_at) / RFU TNFAIP8L3 (11732012_x_at) / Fold change /veh TNFAIP8L3 (11732012_x_at) / RFU MBOAT4 (11741988_at) / Fold change /veh MBOAT4 (11741988_at) / RFU 11764193_at / Fold change /veh 11764193_at / RFU TMEM53 (11763286_at) / Fold change /veh TMEM53 (11763286_at) / RFU MAGEB2 (11727129_at) / Fold change /veh MAGEB2 (11727129_at) / RFU TMEM200A (11744735_a_at) / Fold change /veh TMEM200A (11744735_a_at) / RFU CCDC152 (11751479_a_at) / Fold change /veh CCDC152 (11751479_a_at) / RFU FAM211A (11726209_a_at) / Fold change /veh FAM211A (11726209_a_at) / RFU RGS16 (11746705_a_at) / Fold change /veh RGS16 (11746705_a_at) / RFU VCAN (11755009_s_at) / Fold change /veh VCAN (11755009_s_at) / RFU RHOB (11743442_s_at) / Fold change /veh RHOB (11743442_s_at) / RFU RGS16 (11720943_a_at) / Fold change /veh RGS16 (11720943_a_at) / RFU RGS16 (11720944_at) / Fold change /veh RGS16 (11720944_at) / RFU, VPS4B / Fold change vs veh, VPS4B / RFU, CREB1 / Fold change vs veh, CREB1 / RFU, DNAJC13 / Fold change vs veh, DNAJC13 / RFU, GNAQ / Fold change vs veh, GNAQ / RFU, CDK5R1 / Fold change vs veh, CDK5R1 / RFU, ZRANB3 / Fold change vs veh, ZRANB3 / RFU, CUL4A / Fold change vs veh, CUL4A / RFU, CCNY / Fold change vs veh, CCNY / RFU, UFL1 / Fold change vs veh, UFL1 / RFU, COG3 / Fold change vs veh, COG3 / RFU, DIAPH2 / Fold change vs veh, DIAPH2 / RFU, SKA2 / Fold change vs veh, SKA2 / RFU, AFF3 / Fold change vs veh, AFF3 / RFU, LMF1 / Fold change vs veh, LMF1 / RFU, IPO11 / Fold change vs veh, IPO11 / RFU, DFFB / Fold change vs veh, DFFB / RFU, FOXP1 / Fold change vs veh, FOXP1 / RFU, CARD8 / Fold change vs veh, CARD8 / RFU, STRN3 / Fold change vs veh, STRN3 / RFU, ADK / Fold change vs veh, ADK / RFU, RASSF2 / Fold change vs veh, RASSF2 / RFU, WIPF1 / Fold change vs veh, WIPF1 / RFU, LARP1B / Fold change vs veh, LARP1B / RFU, RASA1 / Fold change vs veh, RASA1 / RFU, RB1 / Fold change vs veh, RB1 / RFU, PPFIA1 / Fold change vs veh, PPFIA1 / RFU, MAT2A / Fold change vs veh, MAT2A / RFU, CCT5 / Fold change vs veh, CCT5 / RFU, WDR92 / Fold change vs veh, WDR92 / RFU, CUX1 / Fold change vs veh, CUX1 / RFU, TTC7A / Fold change vs veh, TTC7A / RFU, TMEM135 / Fold change vs veh, TMEM135 / RFU, DEPTOR / Fold change vs veh, DEPTOR / RFU, CPM / Fold change vs veh, CPM / RFU, DNAJB6 / Fold change vs veh, DNAJB6 / RFU, CACNA2D3 / Fold change vs veh, CACNA2D3 / RFU, DTX4 / Fold change vs veh, DTX4 / RFU, TFCP2 / Fold change vs veh, TFCP2 / RFU, GMCL1 /// GMCL1P1 / Fold change vs veh, GMCL1 /// GMCL1P1 / RFU, AEBP2 / Fold change vs veh, AEBP2 / RFU, SNHG1 /// SNORD22 /// SNORD25 /// SNORD26 /// SNORD27 /// SNORD28 /// SNORD29 /// SNORD31 / Fold change vs veh, SNHG1 /// SNORD22 /// SNORD25 /// SNORD26 /// SNORD27 /// SNORD28 /// SNORD29 /// SNORD31 / Fold change (Aza/veh), C12orf56 (ProbeSet 11735607_a_at) / Fold change (ACY-1035/veh), C12orf56 (ProbeSet 11735607_a_at) / Fold change (Aza/veh), FGFR1OP (ProbeSet 11751329_s_at) / Fold change (ACY-1035/veh), FGFR1OP (ProbeSet 11751329_s_at) / Fold change (Aza/veh), VPS36 (ProbeSet 11739960_a_at) / Fold change (ACY-1035/veh), VPS36 (ProbeSet 11739960_a_at) / RFU SYPL1 (11715823_x_at) / Fold change /veh SYPL1 (11715823_x_at) / RFU IGFBP7 (11715501_s_at) / Fold change /veh IGFBP7 (11715501_s_at) / RFU REEP3 (11722064_at) / Fold change /veh REEP3 (11722064_at) / RFU IGLL1 (11728026_x_at) / Fold change /veh IGLL1 (11728026_x_at): dose or concentration left out as unconfirmed", "conditions": "MV-4-11 cells, 48 hours", "data": [{"molecule": "Nc1ncn([C@@H]2O[C@H](CO)[C@@H](O)[C@H]2O)c(=O)n1", "note": "[azacitidine]", "values": [{"measurement": "RFU TMEM51 (11727254_a_at)", "value": 17.35, "unit": "RFU"}]}]}
